Measurements: article PMC3671111, “A Phase I, open-label, randomized, crossover study in three parallel groups to evaluate the effect of Rifampicin, Ketoconazole, and Omeprazole on the pharmacokinetics of THC/CBD oromucosal spray in healthy volunteers” (SpringerPlus, 2013)
Values joined by “and” are separate entries in the source; they are usually repeats but may differ in a detail not shown here. Equal entries are not always repeated. Marks after values point to notes of the source that are not given here.

Key:
[1] = male, human, in vivo, 9 days
Source text: A total of 36 healthy males subjects enrolled and were divided into three groups of 12. Within each group participants were randomized to one of two treatment sequences with six subjects receiving each sequence.
The safety endpoints were blood pressure, heart rate, ECG, clinical laboratory data (haematology and biochemistry), urinalysis, AEs and concomitant medications, recorded at each visit.

[2] = Phase I drug-drug interaction PK, Group 1: THC/CBD spray alone or with rifampicin, plasma by GC-MS; set-up: k el / half-life: dose or concentration left out as unconfirmed; details: for CL/F / Varea/F: n = 12, mean (SD)
Description: (§1) Subjects received rifampicin on Days 1-9. […] Subjects received ketoconazole on Days 1-4.
(§2) Blood samples were collected at specified times and stored on ice (except rifampicin PK samples which were stored in iced water) prior to processing and storage. Plasma samples were separated by centrifugation (approximately 2500 rpm × 15 minutes at 4°C). Samples were stored in 4 mL amber glass screw top glass vials with PTFE lined screw caps labelled with Guys Drug Research (Quintiles Limited) labels. The aliquots were stored in clearly labelled containers in a freezer set at or below -20°C, until shipped for assay. Samples were shipped on dry ice at the appropriate time-points.
(§3) The assay validation was undertaken by Advanced Bioanalytical Service Laboratories (London, UK), who developed the technique after reviewing the literature, which was based on the methodology adopted by three different groups (Foltz et al. [1983]; Goodall & Basteyns [1995]; Kemp et al. [1995]), and designed with reference to FDA guidelines for industry (FDA Guidance for Industry [2012]). The method utilised protein precipitation, solvent extraction and derivatisation for the sample preparation and then sample analysis by capillary gas chromatography and detection by a mass spectrometer (GC-MS). The validation procedure investigated the calibration model with the best regression fit over the concentration range 0.1 - 100 ng/mL for CBD, THC and 11-OH-THC, as well as precision and accuracy of the method, stability, carry-over, and specificity.
(§4) Human plasma from healthy volunteers was used to prepare the standards and quality control (QC) samples, with analytes extracted using hexane/ethyl acetate (7:1 ratio), derivatised with N,O-Bis(trimethylsilyl)trifluoroacetamide. Analytic grade THC (Sigma, UK), CBD (Sigma, UK) and 11-OH-THC (Radian International and Cerillant, UK) were obtained, and three sets of CBD, THC and 11-OH-THC were used to support the study. Deuterated THC-d3 (Sigma, UK) was used as the internal standard. The GC-MS equipment was a Hewlett Packard 6890 Gas Chromatograph attached to a Hewlett Packard 5973 Mass Selective Detector. Data handling was carried out using an MS Chemstation System and the peak area ratio of the analytes to the internal standard was calculated in Excel (2000). The concentrations were calculated from the ratio data using least squares ln(y) on ln(x) regression performed in Excel (2000), and were then checked manually. Regression analysis was undertaken to find the regression model that best described the calibration data (for details, see ([Miller & Miller 1992])).
(§5) A 0.5 mL aliquot of test sample, QC or blank plasma was placed into a test tube. The blank plasma was spiked with 50 μL of the appropriate standard solution to produce the calibration standards. 50 μL of the internal standard was added to each test tube. The samples were then diluted by the addition of 500 μL of 0.1% (w/v) ascorbic acid and the protein precipitated by the addition of 1.0 mL of acetonitrile. The proteins were removed by centrifugation and the supernatant concentrated to 1 mL using nitrogen at 50 °C. The samples were then basified by the addition of 300 μL of 5M sodium hydroxide and the analytes extracted by the addition of 2.0 mL of 7:1 hexane:ethyl acetate. After mixing for 16 minutes the tubes were centrifuged and the top layer transferred into clean 3 dram vials. The solvent was removed using nitrogen at 70 °C and the dried extract resuspended in 100 μL of BSTFA and transferred to microvials, capped and placed at 70 °C for 30 minutes to derivatise the analytes. The microvials were then cooled and loaded onto the autosampler tray for analysis where 1 μL was injected onto the GC-MS system.

[3] = Phase I drug-drug interaction PK, Group 2: THC/CBD spray alone or with ketoconazole, plasma by GC-MS; set-up: k el: dose or concentration left out as unconfirmed; details: for CL/F / Varea/F: mean (SD)
Description: as §1, §2, §3, §4, §5

[4] = Phase I drug-drug interaction PK, Group 3: THC/CBD spray alone or with omeprazole, plasma by GC-MS; details: for CL/F / Varea/F: n = 12, mean (SD); for Cmax and AUC % Co-efficient of Variation (CV%) range: inter-subject variability
Description: as §1, §2, §3, §4, §5

[5] = Peak plasma concentration of CBD in normal dosing
Source text: However, to investigate the potential interactions of THC and CBD with drugs which also interact with the CYP450s CYP3A4 and CYP2C19, various known inducers/inhibitors of these isoenzymes were employed and the pharmacokinetics (PKs) of their co-administration with THC/CBD spray evaluated.

CYP3A4 = system: CYP3A4; set-up: method as in GW unpublished data; details: one range printed for CYP3A4 and CYP2C19; ref GW unpublished data; read-out: IC50, inhibitory effect on CYP3A4; cited from earlier work
CYP2C19 = system: CYP2C19; set-up: method as in GW unpublished data; details: one range printed for CYP3A4 and CYP2C19; ref GW unpublished data; read-out: IC50, inhibitory effect on CYP2C19; cited from earlier work
[6] = in normal dosing; approximately; no reference given; cited from earlier work
[7] = Rifampicin and THC/CBD spray vs THC/CBD spray alone, no-interaction range 0.80 to 1.25
[8] = THC/CBD spray 4 sprays and rifampicin 600 mg after repeated daily dosing, plasma
[9] = THC/CBD spray alone, single dose 4 sprays (10.8/10 mg), rifampicin group, plasma
[10] = THC/CBD spray co-administered with rifampicin vs alone
[11] = Ketoconazole and THC/CBD spray vs THC/CBD spray alone, no-interaction range 0.80 to 1.25
[12] = THC/CBD spray 4 sprays and ketoconazole 400 mg at end of 5-day dosing period, n = 11, plasma
[13] = THC/CBD spray alone, single dose 4 sprays (10.8/10 mg), ketoconazole group, n = 12, plasma
[14] = THC/CBD spray co-administered with ketoconazole vs alone
[15] = Omeprazole and THC/CBD spray vs THC/CBD spray alone, no-interaction range 0.80 to 1.25
[16] = THC/CBD spray 4 sprays and omeprazole 40 mg at end of 6-day dosing period, plasma
[17] = THC/CBD spray alone, single dose 4 sprays (10.8/10 mg), omeprazole group, plasma
[18] = THC/CBD spray co-administered with omeprazole vs alone
[19] = male, human, plasma, oral, 40 mg

## CO[C@H]1/C=C/O[C@@]2(C)Oc3c(C)c(O)c4c(O)c(c(/C=N/N5CCN(C)CC5)c(O)c4c3C2=O)NC(=O)/C(C)=C\C=C\[C@H](C)[C@H](O)[C@@H](C)[C@@H](O)[C@@H](C)[C@H](OC(C)=O)[C@@H]1C [Rifampicin, rifampicin]
[1]
  Dysgeusia (TEAE): 1 (8) No. of subjects (%)
  Headache (TEAE): 0 No. of subjects (%)
  Somnolence (TEAE): 0 No. of subjects (%)

## C=C(C)[C@@H]1CCC(C)=C[C@H]1c1c(O)cc(CCCCC)cc1O [CBD, cannabidiol]
[2]; [7]
  Geometric mean ratio of AUC(0-inf), point estimate: […]
  Geometric mean ratio of AUC(0-t), point estimate: […]
  Geometric mean ratio of Cmax, point estimate: […]
[2]; [8]
  CL/F: […]
  Varea/F: […]
[2]; [9]
  CL/F: […]
  Varea/F: […]
[2]; [10]
  % change in mean t1/2: […]
  % change in median Tmax: […]
[2]; THC/CBD spray with rifampicin vs THC/CBD spray alone
  Change in mean Cmax: […]
[2]; after multiple dose rifampicin treatment vs THC/CBD spray alone
  Change in mean CL/F: +112%
[2]; male, human, plasma
  AUC(0-inf): […]
  AUC(0-t): […]
  Cmax: […]
  Tmax: […]
  half-life: […]
  k el: […]
[2]; male, human, plasma, oral
  Tmax: […]
  half-life: […]
[3]; [11]
  Geometric mean ratio of AUC(0-inf), point estimate: […]
  Geometric mean ratio of AUC(0-t), point estimate: […]
  Geometric mean ratio of Cmax, point estimate: […]
[3]; [12]
  CL/F: […]
  Varea/F: […]
[3]; [13]
  CL/F: […]
  Varea/F: […]
[3]; [14]
  % change in mean Tmax: […]
  % change in t1/2: […]
[3]; THC/CBD spray with ketoconazole vs THC/CBD spray alone
  Change in mean Cmax: […]
[3]; co-administered with ketoconazole vs THC/CBD spray alone
  Change in mean CL/F: […]
[3]; male, human, plasma, oral
  AUC(0-inf): […]
  AUC(0-t): […]
  Cmax: […]
  k el: […]
[3]; suggested by increased exposure with ketoconazole
  Substrate for the isoenzyme CYP3A4 (conclusion from ketoconazole interaction): substrates
[4]; [15]
  Geometric mean ratio of AUC(0-inf), point estimate: […]
  Geometric mean ratio of AUC(0-t), point estimate: […]
  Geometric mean ratio of Cmax, point estimate: […]
[4]; [16]
  CL/F: […]
  Varea/F: […]
[4]; [17]
  CL/F: […]
  Varea/F: […]
[4]; THC/CBD spray at end of 6-day omeprazole dosing
  Plasma concentrations and PK parameters compared with THC/CBD spray alone: […]
[4]; [18]
  % change in Tmax: […]
  % change in t1/2: […]
[4]; THC/CBD spray with omeprazole vs alone
  Differences in CL/F on co-administration with omeprazole: […]
[4]; at the clinically relevant dose of THC/CBD spray investigated
  Substrate for the isoenzyme CYP2C19 (conclusion from omeprazole interaction): not substrates
[4]; THC/CBD spray alone, omeprazole group
  Cmax and AUC % Co-efficient of Variation (CV%) range: […]
[4]; THC/CBD spray in combination with omeprazole
  Cmax and AUC % Co-efficient of Variation (CV%) range: […]
[4]; male, human, plasma, oral
  Tmax: […]
  half-life: […]
[4]; [19]
  Cmax: 0.73 ng/mL
[5]
  Peak plasma concentration, fold lower than the levels at which CYP inhibition may be anticipated: […]
CYP3A4
  IC50: […]
CYP2C19
  IC50: […]
[6]
  Peak plasma concentrations: […]
